Patent US8946203B2, “Benzodioxane inhibitors of leukotriene production” (Boehringer Ingelheim International GmbH, priority 2012, dated 2015)
Structures can show the parent of a compound that is named as a salt.

Each compound was assayed against T1, human LTA4 hydrolase (Homo sapiens, UniProt P09960) (assay: LTA4H Enzyme assay (cleavage of Arg-AMC, fluorescence)). Details: LTA4H Enzyme 1 nM, Arg-AMC substrate 50 μM, room temperature 1 h, fluorescence; read-out: IC50 values of LTA4H Enzyme assay.
T1 sequence (P09960 1-611): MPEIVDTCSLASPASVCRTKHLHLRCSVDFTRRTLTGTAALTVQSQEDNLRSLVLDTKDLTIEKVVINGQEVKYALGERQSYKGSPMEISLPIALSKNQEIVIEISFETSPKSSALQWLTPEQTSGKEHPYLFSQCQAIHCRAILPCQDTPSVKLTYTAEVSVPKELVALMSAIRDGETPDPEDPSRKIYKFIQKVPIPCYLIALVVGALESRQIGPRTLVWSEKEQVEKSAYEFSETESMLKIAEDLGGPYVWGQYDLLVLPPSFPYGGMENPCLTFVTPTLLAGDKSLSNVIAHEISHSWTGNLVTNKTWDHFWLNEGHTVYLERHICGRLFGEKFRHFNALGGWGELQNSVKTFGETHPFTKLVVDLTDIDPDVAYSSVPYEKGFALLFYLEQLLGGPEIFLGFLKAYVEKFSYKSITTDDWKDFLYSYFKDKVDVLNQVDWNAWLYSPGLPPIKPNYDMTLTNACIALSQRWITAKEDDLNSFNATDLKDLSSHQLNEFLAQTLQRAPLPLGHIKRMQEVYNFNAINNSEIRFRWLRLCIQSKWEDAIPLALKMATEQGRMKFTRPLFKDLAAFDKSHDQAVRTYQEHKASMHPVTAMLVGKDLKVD
Type: biochemical
How it was run: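 Aminomethylcoumarin release measured fluorimetrically (380/460 nm) after 1 h at room temperature. Reaction: 1 nM final enzyme, 50 μM final Arg-AMC and compound in Tris-HCl pH 7.5 with 100 mM KCl and 0.5% BSA.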

Row | Compound | IC50 [nM]
1 | CN(C)C1CCN(Cc2ccc([C@H]3COc4ccccc4O3)cc2)C1 (stereo partly drawn) [Example 93, 1-{4-[(2S)-2,3-dihydro-1,4-benzodioxin-2-yl]benzyl}-N,N-dimethylpyrrolidin-3-amine] | 1.98
2 | CN1CCCC2(CCN(Cc3ccc([C@H]4COc5ccccc5O4)cc3)CC2)C1=O [Example 120, 9-{4-[(2S)-2,3-dihydro-1,4-benzodioxin-2-yl]benzyl}-2-methyl-2,9-diazaspiro[5.5]undecan-1-one] | 0.51
3 | O=C(O)CCCC1CCN(Cc2ccc([C@H]3COc4ccccc4O3)cc2)CC1 [Example 181, 4-(1-{4-[(2S)-2,3-dihydro-1,4-benzodioxin-2-yl]benzyl}piperidin-4-yl)butanoic acid] | 0.042
4 | c1ccc2c(c1)OCC(c1ccc(CN3CCOCC3)cc1)O2 (racemic) [Example 2, 4-[4-(2,3-dihydro-1,4-benzodioxin-2-yl)benzyl]morpholine] | 2.45
5 | CS(=O)(=O)NC1CCN(Cc2ccc(C3COc4ccccc4O3)cc2)CC1 (racemic) [Example 48, N-{1-[4-(2,3-dihydro-1,4-benzodioxin-2-yl)benzyl]piperidin-4-yl}methanesulfonamide] | 0.16
6 | CC(C)(CN1CCCC1)NCc1ccc([C@H]2COc3cccnc3O2)cc1 [Example 157, N-{4-[(3S)-2,3-dihydro[1,4]dioxino[2,3-b]pyridin-3-yl]benzyl}-2-methyl-1-(pyrrolidin-1-yl)propan-2-amine] | 0.18
7 | N#CC1CCN(Cc2ccc([C@H]3COc4ccccc4O3)cc2)CC1 [Example 177, 1-{4-[(2S)-2,3-dihydro-1,4-benzodioxin-2-yl]benzyl}piperidine-4-carbonitrile] | 1.45
8 | CC(=O)N1CC[C@H](NCc2ccc([C@H]3COc4ccccc4O3)cc2)C1 [Example 65, 1-[(3S)-3-({4-[(2S)-2,3-dihydro-1,4-benzodioxin-2-yl]benzyl}amino)pyrrolidin-1-yl]ethanone] | 1.15
9 | c1cnc2c(c1)OCC(c1ccc(CN3CCCC3)cc1)O2 (racemic) [Example 15, 3-[4-(pyrrolidin-1-ylmethyl)phenyl]-2,3-dihydro[1,4]dioxin[2,3-b]pyridine] | 0.36
10 | N#CC1CN(Cc2ccc(C3COc4ccccc4O3)cc2)C1 (racemic) [Example 46, 1-[4-(2,3-dihydro-1,4-benzodioxin-2-yl)benzyl]azetidine-3-carbonitrile] | 24.8
11 | CC(c1ccc([C@H]2COc3ccccc3O2)cc1)N1CCOCC1 (stereo partly drawn) [Example 226, 4-(1-{4-[(2S)-2,3-dihydro-1,4-benzodioxin-2-yl]phenyl}ethyl)morpholine] | 43
12 | O=C(NCCO)C1CCN(Cc2ccc([C@H]3COc4ccccc4O3)cc2)CC1 [Example 96, 1-{4-[(2S)-2,3-dihydro-1,4-benzodioxin-2-yl]benzyl}-N-(2-hydroxyethyl)piperidine-4-carboxamide] | 0.22
13 | c1ccc2c(c1)OCC(c1ccc(CN3CCCCCC3)cc1)O2 (racemic) [Example 40, 1-[4-(2,3-dihydro-1,4-benzodioxin-2-yl)benzyl]azepane] | 0.82
14 | CC1(C(=O)O)CCN(Cc2ccc([C@H]3COc4cccnc4O3)cc2)CC1 [Example 228, 1-[(S)-4-(2,3-Dihydro-[1,4]dioxino[2,3-b]pyridin-3-yl)-benzyl]-4-methyl-piperidine-4-carboxylic acid formate salt] | 0.61
15 | c1cncc(CNCc2ccc(C3COc4ccccc4O3)cc2)c1 (racemic) [Example 54, 1-[4-(2,3-dihydro-1,4-benzodioxin-2-yl)phenyl]-N-(pyridin-3-ylmethyl)methanamine] | 5.93
16 | OCCC1CCN(Cc2ccc([C@H]3COc4ccccc4O3)cc2)CC1 [Example 70, 2-(1-{4-[(2S)-2,3-dihydro-1,4-benzodioxin-2-yl]benzyl}piperidin-4-yl)ethanol] | 0.57
17 | c1cnc2c(c1)OC[C@@H](c1ccc(CN3CCOCC3)cc1)O2 [Example 205, (R)-3-(4-Morpholin-4-ylmethyl-phenyl)-2,3-dihydro-[1,4]dioxino[2,3-b]pyridine] | 27.5
